Results reported in patent US11160282B2, “Use of a composition and method for reducing bacterial spores in pulp suspension” (Kemira Oyj, priority 2016, dated 2021).

Columns and labels:
Type in all cases: cell-based
aerobic spores [1] = experiment: Example 4 (reference): laboratory test, broke sample, aerobic spore count; settings: broke 1.0% consistency, pH 7.8, ORP +146 mV; 10 ppm active chlorine, 1 day contact time; untreated 70 cfu/ml
Procedure: (§1) This laboratory test was performed in order to test killing effect of sodium hypochlorite against total aerobes and aerobic spores in broke sample (consistency 1.0%, pH 7.8, ORP +146 mV) taken from an alkaline board machine, which produces 3-ply food packaging board. Total aerobes and aerobic spore counts were quantitated by using plate count agar (+45° C./+37° C., 2 days incubation). Prior to the bacterial spore determination, samples were pasteurized at +80° C. for 20 min.

total aerobes = experiment: Example 4 (reference): laboratory test, broke sample, total aerobes count; settings: broke 1.0% consistency, pH 7.8, ORP +146 mV; 10 ppm active chlorine, 1 day contact time; untreated 650 000 cfu/ml
Procedure: as §1

aerobic spores [2] = experiment: Example 5: pilot paper machine test, aerobic spores in dry paper (ISO 8784-1); settings: glutaraldehyde alone, 50 ppm as active agent, 5 min post-treatment of pulp suspension (reference paper)
Procedure: This test was performed in a pilot paper machine producing 1-ply paper. Aim of the test was to verify efficacy of the invention to provide a low quantity of aerobic bacteria and aerobic bacterial spores in dry paper end-product. Composition 1-5 comprising 40 weight-% of dodecylamine, 40 weight-% of dipropylene glycol and 20 weight-% of water was used according to the invention. It was dosed as 100, 150 or 300 mg/l into pulp suspension with 2.25% consistency. The pulp suspension was then mixed 120 rpm for 30 min at +40° C. The pulp suspension was made from a batch of authentic, spore-contaminated folding-box board with average spore content of 7000 cfu/gram of dry board. All pulp suspensions in the pilot paper machine were also post-treated (5 min, 120 rpm) with glutaraldehyde (dose: 50 ppm as active agent) in order to maintain control of vegetative bacterial cells in the pilot machine. Total aerobic bacteria (without pasteurization) and aerobic spores (with pasteurization step at +82° C. for 10 min) were quantified from the dry paper end product according to the ISO 8784-1 standard for microbiological examination of paper and board.

Row | Compound | aerobic spores (aerobic spores [1]) | total aerobes (total aerobes) | effect on spore contamination in the produced paper (aerobic spores [2])
1 | OCl [Sodium hypochlorite, sodium hypochlorite] | 60 cfu/ml | 390 000 cfu/ml | 
2 | O=CCCCC=O [glutaraldehyde] |  |  | not alone capable to lower spore contamination
